Values of other authors as cited in US20090305955A1, “Cyclopeptide with Anti-Cancer Activity Derived from Collagen Type IV” (priority 2006, published 2009).

Key:
angiogenesis = conditions: Pasco S et al, 2005; cited from earlier work
[1] = system: various cancer cell lines; conditions: Han J et al; Shahan S et al; cited from earlier work
[2] = target: T1, αVβ3 integrin-CD47 protein complex (Homo sapiens, UniProt P05106); conditions: Shahan T A et al; cited from earlier work
T1 construct: αVβ3 integrin-CD47 protein complex present on the surface of melanoma cells

[3] = system: murine melanoma B16F1 cells; conditions: cells pre-incubated with peptide, injected into C57BL6 syngenic mice; Floquet et al; cited from earlier work
[4] = system: melanoma or fibrosarcoma cells; conditions: Pasco S et al, 2000a; cited from earlier work

T1 sequence (P05106 27-788): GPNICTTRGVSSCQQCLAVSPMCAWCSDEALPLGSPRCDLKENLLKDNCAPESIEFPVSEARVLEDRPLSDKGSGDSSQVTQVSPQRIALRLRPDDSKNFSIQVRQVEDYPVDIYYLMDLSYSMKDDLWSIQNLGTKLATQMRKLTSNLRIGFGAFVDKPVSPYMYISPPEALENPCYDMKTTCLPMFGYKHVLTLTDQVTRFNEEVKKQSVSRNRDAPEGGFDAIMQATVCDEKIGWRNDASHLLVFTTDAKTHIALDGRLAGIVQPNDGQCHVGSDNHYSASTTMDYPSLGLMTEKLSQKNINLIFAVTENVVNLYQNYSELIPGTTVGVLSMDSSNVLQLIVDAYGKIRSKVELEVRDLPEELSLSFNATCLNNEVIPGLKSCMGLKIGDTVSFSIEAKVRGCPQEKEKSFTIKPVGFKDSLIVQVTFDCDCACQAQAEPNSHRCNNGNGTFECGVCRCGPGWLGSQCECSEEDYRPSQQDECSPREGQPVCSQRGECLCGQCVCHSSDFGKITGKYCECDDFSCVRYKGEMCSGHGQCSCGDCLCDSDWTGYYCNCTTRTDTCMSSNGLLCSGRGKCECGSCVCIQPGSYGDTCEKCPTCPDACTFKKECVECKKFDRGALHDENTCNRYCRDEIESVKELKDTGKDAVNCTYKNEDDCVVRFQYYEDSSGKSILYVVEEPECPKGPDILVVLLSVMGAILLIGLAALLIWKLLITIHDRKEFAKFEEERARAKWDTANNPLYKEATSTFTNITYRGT
T1 sequence (P06756 31-889 partner limits assumed): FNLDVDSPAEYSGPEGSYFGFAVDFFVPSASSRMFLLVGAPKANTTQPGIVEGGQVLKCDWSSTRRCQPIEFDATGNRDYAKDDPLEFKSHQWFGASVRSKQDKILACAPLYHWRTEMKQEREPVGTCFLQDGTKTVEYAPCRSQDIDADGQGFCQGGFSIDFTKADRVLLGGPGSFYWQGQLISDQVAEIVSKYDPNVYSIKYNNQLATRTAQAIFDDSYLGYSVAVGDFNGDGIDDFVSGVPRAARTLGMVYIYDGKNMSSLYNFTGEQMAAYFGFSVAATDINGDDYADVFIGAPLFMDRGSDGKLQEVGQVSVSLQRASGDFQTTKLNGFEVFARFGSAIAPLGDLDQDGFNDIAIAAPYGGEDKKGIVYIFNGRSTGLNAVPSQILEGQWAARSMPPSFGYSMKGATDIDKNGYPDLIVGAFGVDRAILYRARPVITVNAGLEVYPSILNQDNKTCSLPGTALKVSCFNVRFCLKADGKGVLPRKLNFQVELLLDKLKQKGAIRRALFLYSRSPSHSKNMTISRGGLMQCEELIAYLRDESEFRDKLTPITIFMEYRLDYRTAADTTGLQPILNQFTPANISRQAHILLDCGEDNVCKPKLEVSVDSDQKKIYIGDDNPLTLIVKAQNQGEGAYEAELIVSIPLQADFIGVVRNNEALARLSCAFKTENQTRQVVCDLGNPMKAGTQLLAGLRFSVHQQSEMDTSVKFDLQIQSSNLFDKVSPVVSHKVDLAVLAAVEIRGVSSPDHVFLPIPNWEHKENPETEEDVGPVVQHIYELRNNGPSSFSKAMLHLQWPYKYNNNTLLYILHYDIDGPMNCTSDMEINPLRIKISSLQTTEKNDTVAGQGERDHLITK
T1 sequence (P06756 891-1048 partner limits assumed): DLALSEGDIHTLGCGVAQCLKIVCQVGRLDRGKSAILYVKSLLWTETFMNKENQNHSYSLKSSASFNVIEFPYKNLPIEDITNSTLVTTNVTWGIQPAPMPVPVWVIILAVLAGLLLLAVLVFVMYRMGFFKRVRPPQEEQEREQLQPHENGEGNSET
T1 sequence (Q08722 19-323 partner): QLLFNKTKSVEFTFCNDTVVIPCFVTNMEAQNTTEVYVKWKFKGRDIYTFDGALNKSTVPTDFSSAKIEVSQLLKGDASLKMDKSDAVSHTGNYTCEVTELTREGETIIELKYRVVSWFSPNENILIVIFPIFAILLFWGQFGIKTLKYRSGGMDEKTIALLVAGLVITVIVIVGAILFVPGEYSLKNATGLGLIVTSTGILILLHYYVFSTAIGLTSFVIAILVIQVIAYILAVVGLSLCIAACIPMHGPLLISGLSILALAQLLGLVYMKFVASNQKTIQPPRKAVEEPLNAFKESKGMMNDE

In the case of “CNYYSNSYSFWLASLNPER (Chemically synthesized NC1 alpha3 (IV) 185-203) [[NC1 α3(IV) 185-203], peptide constituted by amino acids 185 to 203 of the NC1 α3(IV) domain of type IV collagen]”, the “angiogenesis in vitro and in vivo” value (angiogenesis) is listed as “capable of inhibiting angiogenesis”, the “proliferation of various cancer cell lines” value [1] is listed as “may inhibit the proliferation” and the “binding to the αVβ3 integrin-CD47 protein complex on the surface of melanoma cells” value [2] is listed as “binds”. For the same sequence, the “tumoral growth of murine melanoma B16F1 cells” value [3] was “inhibits the tumoral growth” and the “migration of melanoma or fibrosarcoma cells in vitro” value [4] was “inhibit the migration”.
